Measurements from patent US9181288B2, “Azepane derivatives and methods of treating hepatitis B infections” (Novira Therapeutics, Inc., priority 2014, dated 2015).

What was measured:
[1] = target: HBV C150Bo capsid protein (mutant C150 HBV core protein labeled with BODIPY-FL) (Hepatitis B virus genotype D subtype adw, UniProt P03147, C107A/C48A/C61A/R150C); assay: HBV assembly assay (fluorescence quenching in vitro capsid assembly); format: biochemical; conditions: at about 10 μM; 50 mM Hepes pH 7.5, 150 mM NaCl, 1 hour room temperature
[2] = test system: HBV replication in HepG2-2.2.15 cells; assay: Inhibition of HBV replication dot-blot assay; format: cell-based; conditions: Hepatitis B virus, 144 h, six days, reduction in HBV DNA levels
Description: Compounds active in the HBV assembly assay are tested for their activity and toxicity in cellular assay. In the first anti-viral assay, the ability of compounds to inhibit HBV replication in an HBV-producing hepatoma cell line using the dot-blot method is evaluated.
Briefly, confluent monolayers of HepG2-2.2.15 cells are incubated with complete medium containing various concentrations of a test compound. Three days later, the culture medium is replaced with fresh medium containing the appropriately diluted test compound. Six days following the initial administration of the test compound, the cell culture supernatant is collected, and cell lysis is performed. The samples are applied onto Nylos membranes and DNA is immobilized to the membrane by UV cross-linking. After pre-hybridization, the HBV probe is added and the hybridization is performed overnight. The membranes are exposed to the Kodak films; antiviral activity is calculated from the reduction in HBV DNA levels (EC50). The EC50 for antiviral activity is calculated from the dose response curves of active compounds. Assay performance over time is monitored by the use of the standard positive control compounds ETV, BAY 41-4109, and HAP-1.
Selected compounds were tested for their activity and toxicity in cellular assay. In the first anti-viral assay, the ability of compounds to inhibit HBV replication in an HBV-producing hepatoma cell line using the dot-blot method was evaluated.
Confluent monolayers of HepG2-2.2.15 cells were incubated with complete medium containing various concentrations of a test compound. Three days later, the culture medium was replaced with fresh medium containing the appropriately diluted test compound. Six days following the initial administration of the test compound, the cell culture supernatant was collected, and cell lysis was performed. The samples were applied onto Nylos membranes and DNA was immobilized to the membrane by UV cross-linking. After pre-hybridization, the HBV probe was added and the hybridization was performed overnight. The membranes were exposed to the Kodak films; antiviral activity was calculated from the reduction in HBV DNA levels (EC50). The EC50 for antiviral activity was calculated from the dose response curves of active compounds. Assay performance over time was monitored by the use of the standard positive control compounds ETV, BAY 41-4109, and HAP-1.

Sequence of HBV C150Bo capsid protein (mutant C150 HBV core protein labeled with BODIPY-FL) (P03147 1-150 C48A/C61A/C107A/R150C): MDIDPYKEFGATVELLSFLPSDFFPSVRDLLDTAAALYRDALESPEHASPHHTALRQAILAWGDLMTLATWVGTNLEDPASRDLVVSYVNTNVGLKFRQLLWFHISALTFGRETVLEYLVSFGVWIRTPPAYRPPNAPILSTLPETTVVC

| Compound | Activity (HBV assembly assay) [1] | inhibition at 10 µM [2] |
| --- | --- | --- |
| CC(=O)OC1CCCCN(S(=O)(=O)c2cc(C(=O)Nc3cc(F)c(F)c(F)c3)ccc2F)C1 (stereo not shown) [Compound 2024] | + (‘+’ indicates >50% activity at about 10 μM) | > 50% |
| O=C(Nc1ccc(F)c(Cl)c1)c1ccc(F)c(S(=O)(=O)N2CCCC[C@@H](O)C2)c1 [Compound 1763_E1] | + (‘+’ indicates >50% activity at about 10 μM) | > 50% |
| O=C(Nc1cc(F)c(F)c(F)c1)c1ccc(F)c(S(=O)(=O)N2CCC[C@H](O)C(F)C2)c1 (stereo partly shown) [Compound 1829_D2] | + (‘+’ indicates >50% activity at about 10 μM) | > 50% |
| O=C(Nc1ccc(F)c(Cl)c1)c1ccc(F)c(S(=O)(=O)N2CCOCC(O)C2)c1 (stereo not shown) [Compound 1893] | + (‘+’ indicates >50% activity at about 10 μM) | > 50% |
| Cc1ccc(C(=O)Nc2ccc(F)c(F)c2)cc1S(=O)(=O)N1CCCCC(O)C1 (stereo not shown) [Compound 1914] | + (‘+’ indicates >50% activity at about 10 μM) | > 50% |
| O=C(Nc1ccc(F)c(Cl)c1)c1ccc(CO)c(S(=O)(=O)N2CCCCC(F)C2)c1 (stereo not shown) [Compound 1768] | + (‘+’ indicates >50% activity at about 10 μM) | > 50% |
| CC1(O)CCCCN(S(=O)(=O)c2cc(C(=O)Nc3ccc(F)c(F)c3)ccc2F)C1 (stereo not shown) [Compound 1891] | + (‘+’ indicates >50% activity at about 10 μM) | > 50% |
| O=C(Nc1ccc(F)c(Cl)c1)c1ccc(F)c(S(=O)(=O)N2CCCC(F)CC2)c1 (stereo not shown) [Compound 2123] | + (‘+’ indicates >50% activity at about 10 μM) | > 50% |
| Cc1ccc(C(=O)Nc2ccc(F)c(Cl)c2)cc1S(=O)(=O)N1CCCC(O)CC1 (stereo not shown) [Compound 1910] | + (‘+’ indicates >50% activity at about 10 μM) | > 50% |
| O=C(Nc1ccc(F)c(Cl)c1)c1ccc(CF)c(S(=O)(=O)N2CCOCC(O)C2)c1 (stereo not shown) [Compound 1983] | + (‘+’ indicates >50% activity at about 10 μM) | > 50% |
| O=C(Nc1ccc(F)c(Cl)c1)c1ccc(CO)c(S(=O)(=O)N2CCCC(F)CC2)c1 (stereo not shown) [Compound 1769] | + (‘+’ indicates >50% activity at about 10 μM) | > 50% |
| O=C(Nc1ccc(F)c(Cl)c1)c1ccc(CF)c(S(=O)(=O)N2CCCC(O)CC2)c1 (stereo not shown) [Compound 1819] | + (‘+’ indicates >50% activity at about 10 μM) | > 50% |
| O=C(Nc1cc(F)c(F)c(F)c1)c1ccc(CF)c(S(=O)(=O)N2CCOCC(O)(C3CC3)C2)c1 (stereo not shown) [Compound 2505] | + (‘+’ indicates >50% activity at about 10 μM) | > 50% |
| CC(=O)O[C@@H]1CC[C@H](OC(C)=O)CN(S(=O)(=O)c2cc(C(=O)Nc3cc(F)c(F)c(F)c3)ccc2F)C1 [Compound 2625_D2] | + (‘+’ indicates >50% activity at about 10 μM) | > 50% |
| O=C(Nc1ccc(F)c(Cl)c1)c1ccc(F)c(S(=O)(=O)N2CCCC(F)[C@@H](O)C2)c1 (stereo partly shown) [Compound 1822_D1] | + (‘+’ indicates >50% activity at about 10 μM) | > 50% |
| O=C(Nc1ccc(F)c(Cl)c1)c1ccc(F)c(S(=O)(=O)N2CCC[C@H](O)CC2)c1 [Compound 1766_E2] | + (‘+’ indicates >50% activity at about 10 μM) | > 50% |
| O=C(Nc1cc(F)c(F)c(F)c1)c1ccc(F)c(S(=O)(=O)N2CC(O)CCC(F)C2)c1 (stereo not shown) [Compound 1826_D2] | + (‘+’ indicates >50% activity at about 10 μM) | > 50% |
